Read-outs that look alike come from different tables or passages of the source.
Columns and labels:
Format in all cases: in vivo
Oryza sativa (ORYSA) = details: crop plant compatibility
In short: (§1)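 Greenhouse crops in sandy loam sprayed post-emergence at the one-leaf stage, 2–3 weeks after sowing, with WP or EC formulations in water plus 0.5% additive at 600 l/ha. Damage rated visually about 3 weeks later versus untreated controls (0% = like control, 100% = dead); suffixes a–c denote different doses.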

Zea mays (ZEAMX) = details: 20 g/ha, ZEAMX, effect in comparison to untreated controls
In short: as §1

[1] = test system: Alopecurus myosuroides (ALOMY); experiment: Post-emergence herbicidal action against ALOMY; details: visual rating about 3 weeks after treatment vs untreated controls (100% = plants have died, 0% = like control plants)
In short: (§2)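 Greenhouse plants sprayed at the one-leaf stage, 2–3 weeks after sowing, with WP or EC formulations plus 0.5% additive at 600 l/ha water. Activity rated visually after about 3 weeks versus untreated controls (100% = dead, 0% = like control), at 320 g/ha or lower.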

[2] = test system: Echinochloa crus-galli (ECHCG); experiment: Pre-emergence herbicidal action against ECHCG
In short: (§3)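 Read-out is visual percent damage relative to untreated pots, with 100% meaning dead plants and 0% meaning no difference, assessed roughly three weeks after treatment. Compounds were applied pre-emergence to the covering soil at up to 320 g/ha.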

[3] = test system: Polygonum convolvulus (POLCO); experiment: Pre-emergence herbicidal action against POLCO
In short: as §3

[4] = test system: Alopecurus myosuroides (ALOMY); experiment: Pre-emergence herbicidal action against ALOMY; details: scored visually after about 3 weeks, 100% = plants have died
In short: as §3

Viola tricolor (VIOTR) [5] = experiment: Pre-emergence herbicidal action against VIOTR
In short: as §3

[6] = test system: Abutilon theophrasti (ABUTH); experiment: Pre-emergence herbicidal action against ABUTH; details: 100% = plants have died
In short: as §3

[7] = test system: Matricaria inodora (MATIN); experiment: Pre-emergence herbicidal action against MATIN
In short: as §3

[8] = test system: Echinochloa crus-galli (ECHCG); experiment: Post-emergence herbicidal action against ECHCG
In short: as §2

[9] = test system: Matricaria inodora (MATIN); experiment: Post-emergence herbicidal action against MATIN; details: dosage 80 g/ha
In short: as §2

Avena fatua (AVEFA) [10] = experiment: Pre-emergence herbicidal action against AVEFA; details: visual scoring after about 3 weeks vs untreated controls
In short: as §3

Lolium rigidum (LOLRI) [11] = experiment: Pre-emergence herbicidal action against LOLRI
In short: as §3

[12] = test system: Abutilon theophrasti (ABUTH); experiment: Post-emergence herbicidal action against ABUTH; details: visual rating about 3 weeks after treatment vs untreated controls (100% = plants have died, 0% = like control plants)
In short: as §2

[13] = test system: Pharbitis purpurea (PHBPU); experiment: Pre-emergence herbicidal action against PHBPU; details: dosage 320 g/ha
In short: as §3

Avena fatua (AVEFA) [14] = experiment: Post-emergence herbicidal action against AVEFA; details: visual rating about 3 weeks after treatment
In short: as §2

[15] = test system: Verconica persica (VERPE); experiment: Post-emergence herbicidal action against VERPE
In short: as §2

[16] = test system: Pharbitis purpurea (PHBPU); experiment: Post-emergence herbicidal action against PHBPU; details: dosage 80 g/ha
In short: as §2

[17] = test system: Amaranthus retroflexus (AMARE); experiment: Pre-emergence herbicidal action against AMARE; details: visual scoring after about 3 weeks vs untreated controls
In short: as §3

[18] = test system: Verconica persica (VERPE); experiment: Pre-emergence herbicidal action against VERPE
In short: as §3

Setaria viridis (SETVI) [19] = experiment: Pre-emergence herbicidal action against SETVI
In short: as §3

[20] = test system: Amaranthus retroflexus (AMARE); experiment: Post-emergence herbicidal action against AMARE
In short: as §2

Setaria viridis (SETVI) [21] = experiment: Post-emergence herbicidal action against SETVI
In short: as §2

Lolium rigidum (LOLRI) [22] = experiment: Post-emergence herbicidal action against LOLRI
In short: as §2

[23] = test system: Polygonum convolvulus (POLCO); experiment: Post-emergence herbicidal action against POLCO
In short: as §2

[24] = test system: Triticum aestivum (TRZAS); details: crop plant compatibility, effect vs untreated controls
In short: as §1

Viola tricolor (VIOTR) [25] = experiment: Post-emergence herbicidal action against VIOTR
In short: as §2

[26] = 80 g/ha, effect in comparison to untreated controls
[27] = Dosage column 320 g/ha (title prints 3200 g/ha), scored visually after about 3 weeks

Post-emergence action against ORYSA in % (Oryza sativa (ORYSA); [26]) [%] | SMILES | Post-emergence action against ALOMY in % ([1]; 80 g/ha) [%] | Pre-emergence action against ECHCG in % ([2]; dosage 320 g/ha) [%] | Pre-emergence action against POLCO in % ([3]; dosage 320 g/ha) [%] | Pre-emergence action against ALOMY ([4]; 80 g/ha) [%] | Pre-emergence action against ALOMY ([4]; 320 g/ha) [%] | Pre-emergence action against VIOTR in % (Viola tricolor (VIOTR) [5]; 320 g/ha, Viola tricolor) [%] | Pre-emergence action against VIOTR in % (Viola tricolor (VIOTR) [5]; dosage 80 g/ha) [%] | Pre-emergence action against ABUTH [6, 27] [%] | Pre-emergence action against MATIN in % ([7]; dosage 320 g/ha) [%] | Post-emergence action against ECHCG in % ([8]; dosage 80 g/ha) [%] | Pre-emergence action against AVEFA in % (Avena fatua (AVEFA) [10]; 320 g/ha) [%] | Pre-emergence action against LOLRI in % (Lolium rigidum (LOLRI) [11]; dosage 80 g/ha) [%] | Pre-emergence action against LOLRI in % (Lolium rigidum (LOLRI) [11]; dosage 320 g/ha) [%] | Post-emergence action against ABUTH in % ([12]; 80 g/ha) [%] | Pre-emergence action against PHBPU in % [13] [%] | Pre-emergence action against AMARE in % ([17]; 80 g/ha) [%] | Pre-emergence action against AMARE in % ([17]; 320 g/ha) [%] | Pre-emergence action against VERPE in % ([18]; dosage 320 g/ha) [%] | Pre-emergence action against SETVI in % (Setaria viridis (SETVI) [19]; dosage 80 g/ha) [%] | other results
0 | COC(=O)[C@H](C)COC(=O)COc1nn(-c2ccccn2)c(-c2ccc(F)nc2)c1Br [Example I-76] | 100 | 90 | 90 | 90 | 100 | 100 | 100 | 80 | 90 | 90 | 90 | 90 | 100 | 90 | 90 | 90 | 100 | 100 | 80 | Post-emergence action against ORYSA in % (Oryza sativa (ORYSA); 20 g/ha, effect vs untreated controls): 0%; Post-emergence action against ZEAMX in % (crop plant compatibility) (Zea mays (ZEAMX)): 20%; Pre-emergence action against POLCO in % ([3]; dosage 80 g/ha): 80%; Pre-emergence action against MATIN in % ([7]; dosage 80 g/ha): 90%; Post-emergence action against MATIN in % [9]: 80%; Post-emergence action against AVEFA in % (Avena fatua (AVEFA) [14]; 80 g/ha): 90%; Post-emergence action against VERPE in % ([15]; dosage 80 g/ha): 80%; Post-emergence action against PHBPU in % [16]: 90%; Pre-emergence action against VERPE in % ([18]; dosage 80 g/ha): 100%; Pre-emergence action against SETVI in % (Setaria viridis (SETVI) [19]; dosage 320 g/ha): 100%; Post-emergence action against AMARE in % ([20]; 80 g/ha, visual rating about 3 weeks after treatment vs untreated controls (100% = plants have died, 0% = like control plants)): 80%; Post-emergence action against SETVI in % (Setaria viridis (SETVI) [21]; dosage 80 g/ha): 90%; Post-emergence action against LOLRI in % (Lolium rigidum (LOLRI) [22]; dosage 80 g/ha): 80%; Post-emergence action against POLCO in % ([23]; dosage 80 g/ha): 80%
0 | CCOC(=O)COc1nn(-c2ccnc(Cl)c2)c(-c2ccc(F)nc2)c1Br [III-24] | 100 | 100 | 100 | 100 | 100 | 100 | 100 | 100 | 100 | 80 | 100 | 100 | 100 | 90 | 100 | 100 | 100 | 100 | 100 | Post-emergence action against TRZAS in % ([24]; 80 g/ha): 0%; Post-emergence action against TRZAS in % ([24]; 320 g/ha): 0%; Post-emergence action against ALOMY in % ([1]; 320 g/ha): 100%; Pre-emergence action against ECHCG in % ([2]; dosage 80 g/ha): 90%; Pre-emergence action against ABUTH ([6]; 80 g/ha, scored visually after about 3 weeks vs untreated controls, 0% = like control plants): 90%; Post-emergence action against ECHCG in % ([8]; dosage 320 g/ha): 100%; Pre-emergence action against AVEFA in % (Avena fatua (AVEFA) [10]; 80 g/ha): 100%; Post-emergence action against ABUTH in % ([12]; 320 g/ha): 90%; Post-emergence action against AVEFA in % (Avena fatua (AVEFA) [14]; 320 g/ha): 80%; Post-emergence action against VERPE in % ([15]; 320 g/ha, VERPE): 80%; Pre-emergence action against SETVI in % (Setaria viridis (SETVI) [19]; dosage 320 g/ha): 100%; Post-emergence action against AMARE in % ([20]; 320 g/ha, visual rating about 3 weeks after treatment): 100%; Post-emergence action against SETVI in % (Setaria viridis (SETVI) [21]; dosage 80 g/ha): 100%; Post-emergence action against SETVI in % (Setaria viridis (SETVI) [21]; dosage 320 g/ha): 100%; Post-emergence action against LOLRI in % (Lolium rigidum (LOLRI) [22]; dosage 80 g/ha): 100%; Post-emergence action against LOLRI in % (Lolium rigidum (LOLRI) [22]; dosage 320 g/ha): 100%; Post-emergence action against VIOTR in % (Viola tricolor (VIOTR) [25]; 80 g/ha): 80%; Post-emergence action against VIOTR in % (Viola tricolor (VIOTR) [25]; 320 g/ha): 90%; Post-emergence action against POLCO in % ([23]; dosage 320 g/ha): 90%

Source: patent US20240041042A1, “1-(PYRIDYL)-5-AZINYLPYRAZOLE DERIVATIVES, AND THEIR USE FOR CONTROL OF UNDESIRED PLANT GROWTH” (Bayer Aktiengesellschaft, priority 2020, published 2024)
